Laboratory results: the METLIN SMRT retention time set (Domingo-Almenara et al. 2019)

experiment: gradient 5% acetonitrile 3 min, to 50% in 2 min, to 85% in 15 min, held 3 min, 100 µL/min; conditions: column: Zorbax Extend-C18 2.1 x 50 mm; eluents: water / acetonitrile, 0.1% formic acid
In short: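 In both positive and negative ionization mode, a quadrupole time-of-flight mass spectrometer coupled to HPLC analyzed pure standards run in mixtures of ~100 molecules. The Zorbax Extend-C18 column (2.1 × 50 mm, 1.8 μm) was operated at 100 μL/min with water and acetonitrile, each containing 0.1% formic acid. The dead volume was 40 μL and the dwell volume 900 μL. Retention time came from adduct peaks that were computationally picked and individually inspected by hand.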

| RP-LC retention time | SMILES |
| --- | --- |
| 841 s | CC(=O)Nc1ccc(-c2noc(C3CCN(C(=O)c4ccc(Br)cc4)CC3)n2)cc1 |
| 967 s | COc1ccc([N+](=O)[O-])cc1NC(=O)Cc1cccc2ccccc12 |
| 839 s | CCc1csc(-c2ccc(N3CCN(C(=O)c4ccc(OC)c(OC)c4)CC3)nc2)n1 |
| 702 s | Cc1ccccc1CNC(=O)C1CC(=O)N(c2ccc3c(c2)CCN3C(=O)C2CC2)C1 (configuration not stated) |
| 835 s | CC1CCCN(c2ccn3c(=O)n(CC(=O)Nc4cccc(Cl)c4)nc3n2)C1 (configuration not stated) |
| 946 s | O=C(CN1C(=O)CC(c2cccs2)=Nc2ccccc21)Nc1ccc(F)cc1F |
| 595 s | COc1cccc(CN2CCc3nn(CC4CC4)c(=O)n3CC2)n1 |
| 1030 s | COc1cc(C(=O)Nc2ncc(Cc3cccc4ccccc34)s2)cc(OC)c1OC |
| 773 s | Cc1ccc(CNC(=O)N2CCC3(CC2)NC(=O)c2cccc(Cl)c2N3)cc1 |
| 1210 s | Cc1ccc(NS(=O)(=O)c2cc(-c3nc(C(C)(C)C)cs3)cs2)cc1 |
| 877 s | O=C(Nc1ccc(Cl)cc1)C1CCCN(c2ncnc3c2nc2n3CCCCC2)C1 (configuration not stated) |
| 777 s | NC(=O)C1CCN(S(=O)(=O)c2cc(-c3noc(C4CCC4)n3)cs2)CC1 |
| 579 s | CCC(C)(C)OCC(O)CNCC(C)C (configuration not stated) |
| 857 s | Cc1ccc(Nc2c(-c3cccc(Br)c3)nc3cc(C)ccn23)cc1 |
| 630 s | CCN(CC)CCNC(=O)c1cc2n(n1)CCCN(Cc1cccc(C)c1)C2=O |
| 890 s | CCn1ccc(C(=O)N2CCCC2c2cccc(C)c2)n1 (configuration not stated) |
| 798 s | COc1ccccc1N1CCN(Cc2nc(-c3ccccc3)no2)CC1 |
| 775 s | CC(C)=CCN1CCC2(CCc3ccccc32)CC1 |
| 827 s | O=C(C1=CN(c2ccccc2)c2cc(Cl)ccc2S1(=O)=O)N1CCCC1 |
| 865 s | O=C([C@@H]1C[C@H](F)CN1S(=O)(=O)c1ccc(Br)cc1)N1CCCCC1 |
| 1220 s | O=c1c2cc(-c3cccs3)nn2cnn1Cc1nc(-c2ccc(OCc3ccccc3)cc2)no1 |
| 888 s | COc1ccc(CC2C(=O)Nc3ccc(Cl)cc32)cc1 (configuration not stated) |

| RP-LC retention time | SMILES |
| --- | --- |
| 631 s | Cc1ccc(C)c(S(=O)(=O)Nc2ccc3nc(N4CCN(CCC#N)CC4)cc(C(=O)O)c3c2)c1 |
| 664 s | O=C(C1=NNc2cc(Cl)ccc2S1(=O)=O)N1CCOCC1 |
| 758 s | CCCC(CCC)C(=O)Nc1cc(-c2cn3cccnc3n2)ccc1C |
| 842 s | COc1ccc(NC(=O)C2CCCN(S(=O)(=O)c3c[nH]c(C(=O)N4CCCCCC4)c3)C2)cc1 (configuration not stated) |
| 1370 s | CC(C)Oc1ccc(-c2noc(CN3C(=O)COc4cc(C(C)(C)C)ccc43)n2)cc1 |
| 1220 s | CCn1c(=O)oc2cc(-c3noc(-c4ccc(C(F)(F)F)cc4)n3)ccc21 |
| 744 s | CCOc1cc2c(cc1OCC)C1C(C(=O)NCCCOC)c3ccccc3C(=O)N1CC2 (configuration not stated) |
| 901 s | CCCn1ccc2sc(C)c(C(=O)NCCC(C)C)c2c1=O |
| 1000 s | O=[N+]([O-])c1c(-c2nc3ccc(Cl)cn3c2Nc2ccc(Cl)cc2)ccc2c1OCO2 |
| 605 s | COc1ccc(CNC(=O)c2cc(-c3ccncc3)cn2C)cc1OC |
| 690 s | CCCn1cnc2cc(CNC(=O)c3ccc(C(C)C)cc3)ccc21 |
| 1110 s | CC(CNC(=O)c1cc2sc(Cl)cc2n1C)c1ccccc1 (configuration not stated) |
| 677 s | O=C1CCc2cc(S(=O)(=O)NCc3ccco3)cc3c2N1CCC3 |
| 600 s | Cc1ccn2cc(C(=O)NC3CCCC3)nc2c1 |
| 1200 s | Cc1ccc(-c2noc(Cc3nnc(-c4ccc(C)c(C)c4)o3)n2)cc1 |
| 790 s | COCCN1CCC2(CC1)CN(Cc1ccc(F)cc1Cl)Cc1ccccc1O2 |
| 883 s | COc1ccccc1NC(=O)N1C[C@H](c2nc(-c3ccccc3)no2)[C@@H](C)C1 |
| 733 s | Nc1ccc(S(=O)(=O)NCC2CCCCO2)cc1 (configuration not stated) |
| 580 s | COc1ccc(N2CCN(C(=S)Nc3ccc4nc(N5CCN(C)CC5)cc(C)c4c3)CC2)cc1 |
| 760 s | Fc1ccc(CN(C2=NCCN2)c2c(Cl)cccc2Cl)cc1 |
| 811 s | Brc1ccc(OCc2nnc3sc(-c4ccncc4)nn23)cc1 |
| 716 s | COC(=O)c1c(C)[nH]c(C(=O)N2CCC(CC(=O)NCCC(C)C)CC2)c1C |

| RP-LC retention time | SMILES |
| --- | --- |
| 891 s | Cc1cc(C(F)F)n2nc(C(=O)Nc3ccc(Br)cc3)nc2n1 |
| 1060 s | Cc1ccc(-n2c(N3CCCC(C(=O)NCCC4=CCCCC4)C3)nc3ccsc3c2=O)cc1 (configuration not stated) |
| 696 s | NC(=O)CSc1nnc(-c2cccc(Cl)c2)o1 |
| 792 s | CCc1noc(-c2ccc(-n3ncc(C(=O)NC4CC4)c3C)nc2)n1 |
| 777 s | O=C(Nc1cccc2cccnc12)C1COCC(=O)N1Cc1ccccc1 (configuration not stated) |
| 757 s | CCc1noc([C@@H]2CC(F)(F)CN2C(=O)c2ccoc2)n1 |
| 882 s | COc1ccccc1OCc1nn2c(CSc3ccccc3)nnc2s1 |
| 989 s | Cc1cccc(-c2noc(CN3N=NC4C(=O)N(c5ccccc5)C(=O)C43)n2)c1 (configuration not stated) |
| 751 s | CCCS(=O)(=O)N1CCC(c2noc(-c3ccncc3)n2)C1 (configuration not stated) |
| 552 s | CCOc1ccc(C(=O)Nc2cccnc2)nn1 |
| 816 s | CC(C)NC(=O)c1ccc2ccnc(N3CCN(c4ccc(Cl)cc4)CC3)c2c1 |
| 831 s | O=C(Nc1ccc2c(c1)OCCO2)c1cnc(-c2ccc(F)cc2)nc1-c1ccncc1 |
| 934 s | COc1ccc2nc3oc(C(=O)NCCCN4CCCC(C)C4)cc3cc2c1 (configuration not stated) |
| 1010 s | CC(C)N1C(=O)C(C)(C(=O)NCc2ccc(Br)cc2)Oc2cccnc21 (configuration not stated) |
| 601 s | COc1ccc(C)cc1Nc1c(C(=O)N2CCCC2)cnc2nc(C)ccc12 |
| 738 s | CN(Cc1ccco1)C(=O)C1CCCN(c2ncnc3c2nc2n3CCCCC2)C1 (configuration not stated) |
| 940 s | O=C(Cn1cccc(-c2nc(-c3ccccc3)no2)c1=O)Nc1cccc(Br)c1 |
| 700 s | C=CCNC(=O)COc1cccc2c(=O)n(CC=C)ccc12 |
| 660 s | CCc1nc(-c2csc(S(=O)(=O)N3CCC(C(=O)Nc4ccc(C)c(C)c4)CC3)c2)no1 |
| 632 s | CC(C)NC(=O)N1CC=C(c2cn(C(C)C)c3ncccc23)CC1 |
| 1130 s | CC(C)n1c(=O)c2ccccc2n(Cc2nc(-c3ccccc3Cl)no2)c1=O |

| SMILES | RP-LC retention time |
| --- | --- |
| CC(C)(C)NC(=O)N1[C@H]2CC[C@@H]1c1cnc(-c3ccccc3)nc1C2 | 865 s |
| COc1ccccc1C(=O)N1CCC2(CC1)c1nccn1-c1ccccc1CN2CC(C)C | 692 s |
